For 29 compounds, IC50 results are on record in patent publication US7960408B2, “Quinolinyl and benzothiazolyl modulators” (Amgen Inc., priority 2000, dated 2011).

Some results are limits rather than exact numbers.

The target in the assay is T1, PPARγ (Homo sapiens, UniProt P37231).
T1 construct: made in house
T1 sequence (P37231 1-505): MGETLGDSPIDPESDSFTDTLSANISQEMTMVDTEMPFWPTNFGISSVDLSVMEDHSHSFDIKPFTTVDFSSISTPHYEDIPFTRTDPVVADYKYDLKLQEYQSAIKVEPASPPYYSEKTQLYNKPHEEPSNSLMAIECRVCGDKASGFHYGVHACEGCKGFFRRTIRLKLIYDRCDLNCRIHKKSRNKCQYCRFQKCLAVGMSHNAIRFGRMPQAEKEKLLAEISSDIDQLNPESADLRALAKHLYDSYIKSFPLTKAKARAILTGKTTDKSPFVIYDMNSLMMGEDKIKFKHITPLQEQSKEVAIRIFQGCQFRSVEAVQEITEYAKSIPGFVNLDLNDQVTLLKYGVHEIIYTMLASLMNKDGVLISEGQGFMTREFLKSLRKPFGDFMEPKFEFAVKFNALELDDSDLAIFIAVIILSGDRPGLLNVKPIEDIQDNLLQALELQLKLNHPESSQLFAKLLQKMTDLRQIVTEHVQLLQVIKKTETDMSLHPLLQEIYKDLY
Briefly: PPARγ ligand binding assay utilizing [3H]-BRL 49653 as the radioligand. Conditions: concentration required to reduce by 50% the specific binding of [3H]-BRL 49653. The text has this:
The compounds of the present invention can be evaluated for modulation of the PPARγ receptor using assays such as those described in Jiang, et al., Nature 391:82-86 (1998), Ricote, et al., Nature 391:79-82 (1998) and Lehmann, et al., J. Biol. Chem. 270(12): 12953-12956 (1995). Alternatively, the compounds can be evaluated for their ability to displace radiolabeled BRL 49653 from a PPARγ-GST fusion protein as follows:
PPARγ-GST fusion protein (prepared according to standard procedures), [^3H]—BRL 49653 having 50 Ci/mmol specific activity, Polyfiltronics Unifilter 350 filtration plate and glutathione-Sepharose® beads (from Pharmacia: washed twice with 10× binding buffer in which BSA and DTI can be left out).
Binding buffer (10 mM Tris-HCl, pH 8.0, 50 mM KCI, 10 mM DTT, 0.02% BSA and 0.01% NP-40) is added in 80-μL amounts to the wells of the filtration plate. The test compound is then added in 10 μL of DMSO. The PPARγ-GST fusion protein and radiolabeled BRL compound are premixed in binding buffer containing 10 mM DTT and added in 10-μL amounts to the wells of the plate to provide final concentrations of 1 μg/well of PPARγ-GST fusion protein and 10 nM [^3H]—BRL 49653 compound. The plate is incubated for 15 min. Glutathione-agarose bead is added in 50 μL of binding buffer, and the plate is vigorously shaken for one hour. The plate is washed four times with 200 μL/well of binding buffer (without BSA and DTT). The bottom of the plate is sealed and 200 μL/well of scintillation cocktail is added. The top of the plate is then sealed and the radioactivity is determined.
IC50 values are defined as the concentration of test compounds required to reduce by 50% the specific binding of [^3H]—BRL 49653 and are represented by (+) <30 μM; (++) <10 μM; (+++) <1 μM.
`COc1ccc2nc(Oc3cc(Cl)cc(NS(=O)(=O)c4cc(C)c(Cl)cc4Cl)c3)sc2c1` [Compound 309, 2,4-Dichloro-N-[3-chloro-5-(6-methoxy-benzothiazol-2-yloxy)-phenyl]-5-methyl-benzenesulfonamide] displayed an IC50 of less than 1000 nM.
For the compound `O=S(=O)(Nc1cc(Cl)c(Cc2cc3ccccc3cn2)c(Cl)c1)c1ccc(Cl)cc1Cl` [Compound 238, 2,4-Dichloro-N-(3,5-dichloro-4-isoquinolin-3-ylmethyl-phenyl)-benzenesulfonamide], the IC50 is less than 1000 nM.
“2,4-Dichloro-N-[3,5-dichloro-4-(6-methyl-quinoln-3-yloxy)-phenyl]-5-methyl-benzenesulfonamide [Compound 49]”: the IC50 is less than 1000 nM.
Then `COc1cccc2sc(Oc3cc(Cl)cc(NS(=O)(=O)c4ccc(Cl)cc4Cl)c3)nc12` [Compound 297, 2,4-Dichloro-N-[3-chloro-5-(4-methoxy-benzothiazol-2-yloxy)-phenyl]-benzenesulfonamide], with 1000 to 10000 nM; and `O=S(=O)(Nc1cc(Cl)c(Sc2cnc3ccccc3c2)c(Cl)c1)c1ccc(Cl)cc1Cl` [Compound 4.1], with less than 1000 nM; and `O=S(=O)(Nc1cc(Cl)c(Cc2cnc3ccccc3c2)c(Cl)c1)c1ccc(Cl)cc1Cl` [Compound 232, 2,4-Dichloro-N-(3,5-dichloro-4-quinolin-3-ylmethyl-phenyl)-benzenesulfonamide], with less than 1000 nM.
With `O=S(=O)(Nc1cc(Cl)c([S+]([O-])c2cnc3ccccc3c2)c(Cl)c1)c1ccc(Cl)cc1Cl` (centres unmarked) [Compound 5.2], the IC50 was less than 1000 nM.
The compound `O=S(=O)(Nc1cc(Cl)cc(Oc2nc3c(Cl)cccc3s2)c1)c1ccc(C(F)(F)F)cc1Cl` [Compound 290, 2-Chloro-N-[3-chloro-5-(4-chloro-benzothiazol-2-yloxy)-phenyl]-4-trifluoromethyl-benzenesulfonamide] returned an IC50 of 10000 to 30000 nM.
`COc1cccc2sc(Oc3cc(Cl)cc(NS(=O)(=O)c4ccc(C(F)(F)F)cc4Cl)c3)nc12` [Compound 296, 2-Chloro-N-[3-chloro-5-(4-methoxy-benzothiazol-2-yloxy)-phenyl]-4-trifluoromethyl-benzenesulfonamide]: the IC50 is 1000 to 10000 nM.
Take `O=[N+]([O-])c1ccc2nc(Oc3ccc(NS(=O)(=O)c4ccc(C(F)(F)F)cc4Cl)cc3Cl)sc2c1` [Compound 442, 2-Chloro-N-[3-chloro-4-(6-nitro-benzothiazol-2-yloxy)-phenyl]-4-trifluoromethyl-benzenesulfonamide]: the IC50 is less than 1000 nM.
With `Cc1ccc2nc(Oc3cc(Cl)cc(NS(=O)(=O)c4cc(C)c(Cl)cc4Cl)c3)sc2c1` [Compound 301, 2,4-Dichloro-N-[3-chloro-5-(6-methyl-benzothiazol-2-yloxy)-phenyl]-5-methyl-benzenesulfonamide] the figure was less than 1000 nM.
Then `O=S(=O)(Nc1cc(Cl)cc(Oc2nc3ccc(Cl)cc3s2)c1)c1ccc(Cl)cc1Cl` [Compound 303, 2,4-Dichloro-N-[3-chloro-5-(6-chloro-benzothiazol-2-yloxy)-phenyl]-benzenesulfonamide], with less than 1000 nM; and `O=S(=O)(Nc1cc(Cl)c(Nc2nc3ccc(Cl)cc3s2)c(Cl)c1)c1ccc(Cl)cc1Cl` [Compound 71], with less than 1000 nM; and `Cc1cccc2sc(Oc3ccc(NS(=O)(=O)c4ccc(C(F)(F)F)cc4Cl)cc3Cl)nc12` [Compound 504, 2-Chloro-N-[3-chloro-4-(4-methyl-benzothiazol-2-oxy)-phenyl]-4-trifluoromethylbenzenesulfonamide], with 10000 to 30000 nM.
With `O=S(=O)(Nc1cc(Cl)c(Cc2cc3ccccc3cn2)c(Cl)c1)c1ccc(C(F)(F)F)cc1Cl` [Compound 237, 2-Chloro-N-(3,5-dichloro-4-isoquinolin-3-ylmethyl-phenyl)-4-trifluoromethyl-benzenesulfonamide] the figure was less than 1000 nM; with `O=S(=O)(Nc1cc(Cl)cc(Oc2nc3ccc(Cl)cc3s2)c1)c1ccc(C(F)(F)F)cc1Cl` [Compound 302, 2-Chloro-N-[3-chloro-5-(6-chloro-benzothiazol-2-yloxy)-phenyl]-4-trifluoromethyl-benzenesulfonamide], less than 1000 nM.
`O=S(=O)(Nc1cc(Cl)c(Cc2ccc3ccccc3n2)c(Cl)c1)c1ccc(Cl)cc1Cl` [Compound 225, 2,4-Dichloro-N-(3,5-dichloro-4-quinolin-2-ylmethyl-phenyl)-benzenesulfonamide] registered an IC50 of less than 1000 nM.
Then `O=S(=O)(Nc1cc(Cl)c([S+]([O-])c2cnc3ccccc3c2)c(Cl)c1)c1ccccc1` (centres unmarked) [Compound 5.3], with 1000 to 10000 nM; and `COC(=O)c1cccc2cc(Oc3c(Cl)cc(NS(=O)(=O)c4ccc(Cl)cc4Cl)cc3Cl)cnc12` [Compound 46, 3-[2,6-Dichloro-4-(2,4-dichloro-benzenesulfonylamino)-phenoxy]-quinoline-8-carboxylic acid methyl ester], with less than 1000 nM; and `N#Cc1ccc2sc(Oc3cc(Cl)cc(NS(=O)(=O)c4ccc(Cl)cc4Cl)c3)nc2c1` [Compound 287, 2,4-Dichloro-N-[3-chloro-5-(5-cyano-benzothiazol-2-yloxy)-phenyl]-benzenesulfonamide], with less than 1000 nM.
Compound `Cc1ccc2nc(Oc3cc(Cl)cc(NS(=O)(=O)c4ccc(Cl)cc4Cl)c3)sc2c1` [Compound 300, 2,4-Dichloro-N-[3-chloro-5-(6-methyl-benzothiazol-2-yloxy)-phenyl]-benzenesulfonamide] yielded an IC50 of less than 1000 nM.
Then `O=S(=O)(Nc1cc(Cl)cc(Oc2nc3cc(-c4nnn[nH]4)ccc3s2)c1)c1ccc(C(F)(F)F)cc1Cl` [Compound 289, 2-Chloro-N-{3-chloro-5-[5-(1H-tetrazol-5-yl)-benzothiazol-2-yloxy]-phenyl}-4-trifluoromethyl-benzenesulfonamide], with less than 1000 nM; and `Cc1cc(S(=O)(=O)Nc2cc(Cl)cc(Oc3nc4ccc(F)cc4s3)c2)c(Cl)cc1Cl` [Compound 306, 2,4-Dichloro-N-[3-chloro-5-(6-fluoro-benzothiazol-2-yloxy)-phenyl]-5-methyl-benzenesulfonamide], with less than 1000 nM.
Then `COc1cccc2sc(Oc3c(Cl)cc(NS(=O)(=O)c4ccc(C(F)(F)F)cc4Cl)cc3Cl)nc12` [Compound 427, 2-Chloro-N-[3,5-dichloro-4-(4-methoxy-benzothiazol-2-yloxy)-phenyl]-4-trifluoromethyl-benzenesulfonamide], with less than 1000 nM; and `O=S(=O)(Nc1cc(Cl)cc(Cc2nc3cc(Cl)ccc3s2)c1)c1ccc(Cl)cc1Cl` [Compound 332, 2,4-Dichloro-N-[3-chloro-5-(5-chloro-benzothiazol-2-ylmethyl)-phenyl]-benzenesulfonamide], with less than 1000 nM; and `Cc1cc(S(=O)(=O)Nc2cc(Cl)c(Oc3nc4c(Cl)cccc4s3)c(Cl)c2)c(Cl)cc1Cl` [Compound 426, 2,4-Dichloro-N-[3,5-dichloro-4-(4-chloro-benzothiazol-2-yloxy)-phenyl]-5-methyl-benzenesulfonamide], with less than 1000 nM.
In the case of `Cc1cc(S(=O)(=O)Nc2cc(Cl)c(Cc3ccc4ccccc4n3)c(Cl)c2)c(Cl)cc1Cl` [Compound 226, 2,4-Dichloro-N-(3,5-dichloro-4-quinolin-2-ylmethyl-phenyl)-5-methyl-benzenesulfonamide], the IC50 is less than 1000 nM.
With `O=S(=O)(Nc1cc(Cl)cc(Oc2nc3ccc(F)cc3s2)c1)c1ccc(C(F)(F)F)cc1Cl` [Compound 304, 2-Chloro-N-[3-chloro-5-(6-fluoro-benzothiazol-2-yloxy)-phenyl]-4-trifluoromethyl-benzenesulfonamide] the figure was less than 1000 nM; with `O=S(=O)(Nc1cc(Cl)c(Oc2nc3ccc(Cl)cc3s2)c(Cl)c1)c1ccc(OC(F)(F)F)cc1` [Compound 434, N-[3,5-Dichloro-4-(6-chloro-benzothiazol-2-yloxy)-phenyl]-4-trifluoromethoxy-benzenesulfonamide], 1000 to 10000 nM.

What is called IC50 is the concentration at which inhibition is half-maximal. High values mean weaker potency in that assay, low ones greater potency in that assay.
